Experimental data published in PubChem BioAssay (NCI).
“And” between values parts separate entries of the source, which are not always exact repeats. Identical values can stand only once.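 Growth conditions: 96-well plates. Treatment: test compound, 48 hours, 5 concentrations. Analysis: linear interpolation between bracketing concentrations; unreached endpoints set to highest concentration. GI50 marks 50% less growth. Definition used: TGI = concentration required for complete inhibition of growth.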 Where a SMILES comes first, the peptide text is derived from it. [ ]: non-standard residue; d: D form. The star is where a group is joined. X28 = COC1=CC(=O)N(C(=O)[C@@H](O*)C(C)C)[C@H]1Cc1ccccc1; NMeL = CN[C@@H](CC(C)C)C(=O)O; Hexanoyl = CCCCCC(=O)*; Boc = CC(C)(C)OC(=O)*; OBn = c1ccc(CO*)cc1; Bn = c1ccc(C*)cc1

Assays:
Experiment in all cases: NCI-60 cell line screen, 48 h
[1] = system: COLO 205 colon
[2] = system: HCT-116 colon
[3] = system: HOP-62 NSCLC
[4] = system: KM12 colon
[5] = system: NCI-H522 lung
[6] = system: OVCAR-4 ovarian
[7] = system: SK-MEL-2 melanoma
[8] = system: SK-OV-3 ovarian
[9] = system: SNB-19 CNS
[10] = system: SNB-75 CNS
[11] = system: UO-31 renal

## Cc1cc2nc3c(C#N)c(-c4ccccc4)/c(=C\Nc4cccc(C(F)(F)F)c4)c(=O)n3c2cc1C
[1]
  TGI: > 100 µM
[2]
  TGI: > 100 µM
[3]
  TGI: 66.9 µM
[4]
  TGI: > 100 µM
[5]
  TGI: 93.7 µM
[6]
  TGI: > 100 µM
[7]
  TGI: > 100 µM
[8]
  TGI: > 100 µM
[9]
  TGI: > 100 µM
[10]
  TGI: > 100 µM
[11]
  TGI: > 100 µM

## OC1(c2ccc(Cl)cc2)c2ccccc2C2=Nc3ccccc3CN21 (centres undefined)
[1]
  TGI: > 100 µM
[2]
  TGI: 19 µM
[3]
  TGI: 30.8 µM
[4]
  TGI: > 75.4 µM
[5]
  TGI: 67.2 µM
[6]
  TGI: 50.6 µM
[7]
  TGI: > 89.6 µM
[8]
  TGI: > 100 µM
[9]
  TGI: > 67.6 µM
[10]
  TGI: 44 µM
[11]
  TGI: > 100 µM

## C(=N\NC1=NCCCN1)/c1ccc(-c2cn3cc(/C=N/NC4=NCCCN4)ccc3n2)cc1
[1]
  TGI: > 100 µM
[2]
  TGI: > 100 µM
[3]
  TGI: > 100 µM
[4]
  TGI: > 100 µM
[5]
  TGI: > 100 µM
[6]
  TGI: > 100 µM
[7]
  TGI: > 100 µM
[8]
  TGI: > 100 µM
[9]
  TGI: > 100 µM
[10]
  TGI: > 100 µM
[11]
  TGI: > 100 µM

## c1ccc(COc2nc3ccc(C45CC6CC(CC(C6)C4)C5)cc3[nH]2)cc1
[1]
  TGI: 21.2 µM
[2]
  TGI: > 83.5 µM
[3]
  TGI: > 74.8 µM
[4]
  TGI: > 100 µM
[5]
  TGI: 13.9 µM
[6]
  TGI: > 100 µM
[7]
  TGI: 52.6 µM
[8]
  TGI: > 100 µM
[9]
  TGI: > 100 µM
[10]
  TGI: > 86.5 µM
[11]
  TGI: > 64.7 µM

## CC1(C)COC(c2cccc(C3=NC(C)(C)CO3)c2)=N1
[1]
  TGI: > 100 µM
[2]
  TGI: > 100 µM
[3]
  TGI: > 100 µM
[4]
  TGI: > 100 µM
[6]
  TGI: > 100 µM
[7]
  TGI: > 100 µM
[9]
  TGI: > 100 µM
[11]
  TGI: > 100 µM

## CC(C)CC(NC(=O)C(Cc1ccccc1)NC(=O)C(COCc1ccccc1)NC(=O)OC(C)(C)C)C(=O)OCc1ccccc1 (stereo not drawn) (Boc-Ser(Bn)-Phe-Leu-OBn; configuration not given here)
[1]
  TGI: 43.9 µM
[2]
  TGI: 32.9 µM
[3]
  TGI: > 100 µM
[5]
  TGI: 31.9 µM
[6]
  TGI: > 100 µM
[7]
  TGI: > 100 µM
[8]
  TGI: > 100 µM
[9]
  TGI: > 100 µM
[10]
  TGI: 57.6 µM
[11]
  TGI: > 100 µM

## CC(=O)OCc1ccc(-c2nc(C#N)c(N)o2)o1
[1]
  TGI: > 10 µM
[2]
  TGI: > 10 µM
[3]
  TGI: > 10 µM
[4]
  TGI: > 10 µM
[5]
  TGI: > 10 µM
[6]
  TGI: > 10 µM
[8]
  TGI: > 10 µM
[9]
  TGI: > 10 µM
[10]
  TGI: > 10 µM
[11]
  TGI: > 10 µM

## CCCCCC(=O)N[C@H](C(=O)N[C@H](C(=O)N(C)[C@@H](CC(C)C)C(=O)N1CCC[C@H]1C(=O)N1CCC[C@H]1C(=O)O[C@H](C(=O)N1C(=O)C=C(OC)[C@@H]1Cc1ccccc1)C(C)C)C(C)C)C(C)C (Hexanoyl-VV[NMeL]PP-X28)
[1]
  TGI: > 100 µM
[2]
  TGI: > 100 µM
[3]
  TGI: > 100 µM
[4]
  TGI: > 100 µM
[5]
  TGI: > 100 µM
[6]
  TGI: > 100 µM
[7]
  TGI: > 100 µM
[8]
  TGI: > 100 µM
[9]
  TGI: > 42.1 µM
[10]
  TGI: 70.8 µM

## O=c1[nH]c2ccc(CC(=S)N3CCN(c4ccccc4)CC3)cc2s1
[1]
  TGI: > 100 µM
[2]
  TGI: > 100 µM
[3]
  TGI: 50.1 µM
[4]
  TGI: > 100 µM
[7]
  TGI: > 100 µM
[8]
  TGI: 44.9 µM
[9]
  TGI: > 100 µM

## Cn1c2ccccc2n2c(=O)c(-c3ccc(O)cc3)nnc12
[1]
  TGI: > 100 µM
[2]
  TGI: > 100 µM
[3]
  TGI: > 100 µM
[4]
  TGI: > 100 µM
[5]
  TGI: > 100 µM
[6]
  TGI: > 100 µM
[7]
  TGI: > 100 µM
[9]
  TGI: > 100 µM
[10]
  TGI: 75 µM
[11]
  TGI: > 100 µM

## Fc1ccc(C(=NCc2ccccc2)N2CCOCC2)cc1
[1]
  TGI: > 100 µM
[2]
  TGI: > 100 µM
[3]
  TGI: > 100 µM
[4]
  TGI: > 100 µM
[7]
  TGI: > 100 µM
[8]
  TGI: > 100 µM
[9]
  TGI: > 100 µM
[10]
  TGI: > 100 µM
[11]
  TGI: > 100 µM

## Cc1cccc(Nc2cn(CCOc3ccccc3)c(=O)[nH]c2=O)c1
[1]
  TGI: 36.8 µM
[2]
  TGI: > 100 µM
[3]
  TGI: > 100 µM
[4]
  TGI: > 100 µM
[6]
  TGI: > 100 µM
[9]
  TGI: > 100 µM
[11]
  TGI: > 100 µM

## COc1ccc(NS(=O)C2CCCCC2)cc1 (centres undefined)
[1]
  TGI: > 100 µM
[2]
  TGI: > 100 µM
[3]
  TGI: > 100 µM
[4]
  TGI: > 100 µM
[5]
  TGI: > 100 µM
[9]
  TGI: > 100 µM
[10]
  TGI: > 100 µM
[11]
  TGI: > 100 µM

## COC(=O)c1c(C)nc(C)c(N=O)c1-c1ccccc1C(F)(F)F
[1]
  TGI: > 100 µM
[2]
  TGI: 31.8 µM
[3]
  TGI: > 100 µM
[4]
  TGI: 35.9 µM
[5]
  TGI: 18.7 µM
[6]
  TGI: 31.8 µM
[7]
  TGI: > 100 µM
[8]
  TGI: > 100 µM
[9]
  TGI: > 100 µM
[11]
  TGI: 37.1 µM

## COC(=O)CSc1[nH]c2nc(C)nc(Nc3ccccc3)c2c1C#N
[1]
  TGI: > 10 µM
[3]
  TGI: > 10 µM
[4]
  TGI: > 10 µM
[6]
  TGI: > 10 µM
[8]
  TGI: > 10 µM
[10]
  TGI: > 10 µM

## COC(=O)c1ccc(/C=C/C2=CC(=O)C=CC2=O)cc1
[1]
  TGI: > 52.5 µM
[2]
  TGI: 29.6 µM
[3]
  TGI: > 100 µM
[4]
  TGI: 31.6 µM
[5]
  TGI: 3.6 µM
[6]
  TGI: 42 µM
[7]
  TGI: > 62.1 µM
[9]
  TGI: > 43 µM
[10]
  TGI: 99.4 µM
[11]
  TGI: 17.9 µM

## CC(=O)OCC1OC(n2c(-c3ccccc3)c(N=Nc3ccc(Cl)cc3)c(C)c(C#N)c2=S)C(OC(C)=O)C(OC(C)=O)C1OC(C)=O (centres undefined)
[1]
  GI50: 28 µM and > 100 µM
  TGI: 57.5 µM and > 100 µM
[2]
  GI50: 6.61 µM and 30.2 µM
  TGI: > 100 µM
[3]
  TGI: 52.9 µM and > 100 µM
[4]
  GI50: 9.22 µM and 85.4 µM
  TGI: 24.4 µM and > 100 µM
[6]
  GI50: 13.8 µM and 31.8 µM
  TGI: > 100 µM
[7]
  TGI: 39.6 µM and > 100 µM
[8]
  GI50: 8.42 µM and 27.3 µM
  TGI: > 100 µM and 76.5 µM
[9]
  GI50: 4.48 µM and 34.1 µM
  TGI: 33.3 µM and > 100 µM
[10]
  GI50: 25.5 µM and 4.24 µM
  TGI: > 100 µM and 26.4 µM
[11]
  GI50: 5.87 µM and 47.3 µM
  TGI: 27.1 µM and > 100 µM

## O=[N+]([O-])c1ccccc1S(=O)(=O)N1CCCc2cc(Cl)ccc21
[1]
  TGI: > 100 µM
[2]
  TGI: > 100 µM
[3]
  TGI: > 100 µM
[4]
  TGI: > 83.9 µM
[6]
  TGI: > 100 µM
[7]
  TGI: > 100 µM
[8]
  TGI: > 100 µM
[9]
  TGI: > 100 µM
[10]
  TGI: > 100 µM
[11]
  TGI: > 100 µM

## N#CC(C(=O)c1ccccc1F)c1nc2cc(C(F)(F)F)ccc2s1 (centres undefined)
[1]
  TGI: 49.5 µM
[2]
  TGI: 41.9 µM
[3]
  TGI: 63.1 µM
[4]
  TGI: > 100 µM
[5]
  TGI: 40.5 µM
[6]
  TGI: > 100 µM
[8]
  TGI: > 100 µM
[10]
  TGI: > 100 µM

## CCOC(=O)c1c(OCC)[nH]c(=O)c(C(c2ccc(F)cc2)c2c(O)c(C(=O)OCC)c(OCC)[nH]c2=O)c1O
[1]
  TGI: 79.8 µM
[2]
  TGI: > 100 µM
[3]
  TGI: 36.1 µM
[4]
  TGI: 37.7 µM
[5]
  TGI: 42 µM
[6]
  TGI: 48.3 µM
[7]
  TGI: 37 µM
[9]
  TGI: 42.2 µM
[11]
  TGI: 25.7 µM
